Assay results as given in patent EP0219377A1, “Process for the preparation of spherical paracetamol agglomerates and products obtained thereby” (RHONE-POULENC SANTE, priority 1985, dated 1987).

Columns and labels:
[1] = dissolution of suspensions of 1, 2 and 3 g in 200 cm3 of water, stirred at room temperature; type: physicochemical; conditions: insoluble filtered, dried and weighed after at most 10 minutes
Excerpt: Les résultats suivants sont obtenus :

[2] = flowability (coulabilité) test on the Hosokawa combined powder tester; type: physicochemical; conditions: for Angle de spatule / Angle de talus / Densité (non tassée): combiné Hosokawa
Excerpt: Les propriétés de coulabilité et de dissolution du produit ainsi obtenu sont comparées à celle de paracétamol cristallisé paracétamol broyé (refus à 425 µ < 0,5 %, refus à 250 µ < 5 %) paracétamol broyé super fin (refus à 50 µ < 10 %, refus à 80 µ < 1 %) a) coulabilité : les produits sont testés sur le combiné Hosokawa commercialisé par Hosokawa Europe Ltd, St John's Estate, Tylers Green High Wycombe, Buckinghamshire, England.

[3] = Concentration 5 g/l (1 g in 200 cm3 water)
[4] = Concentration 10 g/l (2 g in 200 cm3 water)
[5] = Concentration 15 g/l (3 g in 200 cm3 water)

Row | Pourcentage dissous [1, 3] | Pourcentage dissous [1, 4] | Pourcentage dissous [1, 5] | Angle de spatule [2] | Angle de talus [2] | Densité (non tassée) [2] | coulabilité ([2]; result in words, compared with the crystallised and ground products) | SMILES
1 | 100 | 100 | > 98 | 41° | 37° | 400 kg/m3 | aussi bonne que le produit cristallisé | CC(=O)Nc1ccc(O)cc1 [Aggloméré, paracétamol]
2 | 100 | 100 | > 98 | 76° | 60° | 150 kg/m3 |  | CC(=O)Nc1ccc(O)cc1 [Broyé super fin, paracétamol]
3 | 100 | 100 | > 98 | 74° | 56° | 280 kg/m3 |  | CC(=O)Nc1ccc(O)cc1 [Broyé, paracétamol]
4 | > 95 | 85 | 83 | 39° | 39° | 700 kg/m3 |  | CC(=O)Nc1ccc(O)cc1 [Cristallisé, paracétamol]
